Our source for the IC50 values is patent publication US8461170B2, “Chemical compounds” (Astrazeneca AB, priority 2010, dated 2013).

The target of one test is T1, human ALK (Homo sapiens, UniProt Q9UM73).
T1 construct: GST (N); purchased Invitrogen, Carlsbad, Calif; (or prepared by AstraZeneca); host or cells: insect cells
T1 sequence (Q9UM73 1058-1620): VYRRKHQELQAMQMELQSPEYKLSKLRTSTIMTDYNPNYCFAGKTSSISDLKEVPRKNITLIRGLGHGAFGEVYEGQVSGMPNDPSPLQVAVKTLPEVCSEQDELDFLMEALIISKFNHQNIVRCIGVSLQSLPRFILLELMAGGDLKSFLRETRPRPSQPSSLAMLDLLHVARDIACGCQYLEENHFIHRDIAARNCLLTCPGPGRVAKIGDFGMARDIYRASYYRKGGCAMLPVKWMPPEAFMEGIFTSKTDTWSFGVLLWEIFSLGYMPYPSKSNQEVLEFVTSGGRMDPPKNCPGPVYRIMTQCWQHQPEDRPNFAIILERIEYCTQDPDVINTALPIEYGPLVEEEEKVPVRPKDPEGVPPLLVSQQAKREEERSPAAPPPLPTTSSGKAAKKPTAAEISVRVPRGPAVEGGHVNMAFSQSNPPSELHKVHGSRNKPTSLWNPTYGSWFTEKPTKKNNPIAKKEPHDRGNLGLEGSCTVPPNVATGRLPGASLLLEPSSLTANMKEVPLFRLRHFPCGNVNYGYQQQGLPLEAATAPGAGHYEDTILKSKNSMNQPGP
Put plainly: ALK kinase mobility shift assay (Caliper LC3000). The following applies: cumulative geometric means including test re-runs, some obtained since the priority filings; ATP 30 μM (Km) or 5 mM, not specified which; read-out: ALK Enzyme IC50 (μM)**. The class given is biochemical. The method, then: ALK kinase activity was determined by measuring the kinase's ability to phosphorylate a tyrosine residue within a peptide substrate using a mobility shift assay on a Caliper LC3000 reader (Caliper Life Sciences, Hopkinton, Mass.), which measures fluorescence of the phosphorylated and unphosphorylated substrate and calculates a ratiometric value to determine percent turnover.
To measure ALK kinase activity, the ALK enzyme used was N-terminal GST-tagged, recombinant, human ALK, amino acids 1058-1620 (Genbank Accession number NP_004295) expressed in insect cells and activated in-vitro via autophosphorylation. This was either purchased from a commercially available source (Invitrogen, Carlsbad, Calif.) or prepared by AstraZeneca. The kinase was incubated with a FAM labeled SRCtide substrate (5FAM-GEEPLYWSFPAKKK-NH2, AnaSpec, Fremont, Calif.), 30 μM adenosine triphosphate (ATP, at Km concentration) or 5 mM ATP, 50 mM HEPES buffer (pH 7.3), 1 mM DTT, 0.01% Tween 20, 50 μg/ml BSA and 10 mM MgCl2 for 90 minutes at room temperature. After this time, the kinase reaction was stopped by adding quenching buffer containing final concentrations of 36 mM ethylenediaminetetraacetic acid (EDTA), 65 mM HEPES buffer (pH 7.3), 0.2% Coatin Reagent 3 (Caliper Life Sciences, Hopkinton, Mass.), and 0.003% Tween 20. The reaction was performed in 384 well microtitre plates and the reaction products were detected using the Caliper LC3000 Reader in the presence of separation buffer consisting of 100 mM HEPES (pH 7.3), 15.8 mM EDTA, 0.1% Coatin Reagent 3 (Caliper, Mass.), 0.015% Brij-35, 5% DMSO, and 5.6 mM MgCl2. The separation conditions set up on the Caliper LC3000 were −1.7 PSI, −400V upstream voltage, −2000V downstream voltage, 0.2 second sample sip, 45 second post sip, and 150 seconds final delay. The percentage of inhibition of ALK enzyme activity by compounds were measured based on Max signals (DMSO control) and Min signals (EDTA control) in the plates. Data was graphed and IC50s calculated by IDBS ActivityBase program.
As for `COc1cc(P2(=O)CCC(N)CC2)ccc1Nc1ncc(Cl)c(-c2c[nH]c3ccccc23)n1` (single isomer, unassigned) [Example 42, N-[4-(4-amino-1-oxidophosphinan-1-yl)-2-methoxyphenyl]-5-chloro-4-(1H-indol-3-yl)pyrimidin-2-amine], the IC50 was 0.083 µM.

Take `COc1cc(P2(=O)CCC(N)CC2)ccc1Nc1ncc(C)c(-c2c[nH]c3ccccc23)n1` (single isomer, unassigned) [Example 43, N-[4-(4-amino-1-oxidophosphinan-1-yl)-2-methoxyphenyl]-4-(1H-indol-3-yl)-5-methylpyrimidin-2-amine]: the IC50 was determined as 0.158 µM.

As for `COc1cc(P2(=O)CCC(N)CC2)ccc1Nc1ncc(C)c(-c2c[nH]c3ccccc23)n1` (single isomer, unassigned) [Example 44, N-[4-(4-amino-1-oxidophosphinan-1-yl)-2-methoxyphenyl]-4-(1H-indol-3-yl)-5-methylpyrimidin-2-amine], the IC50 is 0.02 µM.

Regarding `COc1cc(N2CCC(N)C(F)C2)ccc1Nc1ncc(Cl)c(-c2c[nH]c3ccccc23)n1` (single isomer, unassigned) [Example 45, (trans)-N-(4-(4-amino-3-fluoropiperidin-1-yl)-2-methoxyphenyl)-5-chloro-4-(1H-indol-3-yl)pyrimidin-2-amine], the IC50 was 0.061 µM.

For the molecule `COc1cc(N2CCC(N)C(F)C2)ccc1Nc1ncc(Cl)c(-c2c[nH]c3ccccc23)n1` (single isomer, unassigned) [Example 46, (trans)-N-(4-(4-amino-3-fluoropiperidin-1-yl)-2-methoxyphenyl)-5-chloro-4-(1H-indol-3-yl)pyrimidin-2-amine], the concentration for half-maximal inhibition (IC50) came out at 0.039 µM.

For the molecule `COc1cc(N2CCC(N)C(F)C2)ccc1Nc1ncc(Cl)c(-c2c[nH]c3ccccc23)n1` (single isomer, unassigned) [Example 50, (cis)-N-(4-(4-amino-3-fluoropiperidin-1-yl)-2-methoxyphenyl)-5-chloro-4-(1H-indol-3-yl)pyrimidin-2-amine], the half-inhibitory concentration (IC50) came to 0.022 µM.

As for `COc1cc(N2CCC(N)C(F)C2)ccc1Nc1ncc(Cl)c(-c2c[nH]c3ccccc23)n1` (single isomer, unassigned) [Example 51, (cis)-N-(4-(4-amino-3-fluoropiperidin-1-yl)-2-methoxyphenyl)-5-chloro-4-(1H-indol-3-yl)pyrimidin-2-amine], the IC50 came out at 0.031 µM.

Staying with this test, now noted: geometric means of multiple test runs, as presented in the priority filings; ATP 30 μM (Km) or 5 mM, not specified which; read-out: ALK Enzyme IC50 (μM)*.
In the case of `CNC1CCN(c2ccc(Nc3ncc(Cl)c(-c4c[nH]c5ccccc45)n3)c(OC)c2)CC1` [Example 2, 5-Chloro-4-(1H-indol-3-yl)-N-(2-methoxy-4-(4-(methylamino)piperidin-1-yl)phenyl)pyrimidin-2-amine], the half-maximal inhibitory concentration (IC50) worked out at 0.023 µM.

With `COc1cc(N2CCC(N3CCNCC3)CC2)ccc1Nc1ncc(Cl)c(-c2c[nH]c3ccccc23)n1` [Example 3, 5-Chloro-4-(1H-indol-3-yl)-N-(2-methoxy-4-(4-(piperazin-1-yl)piperidin-1-yl)phenyl)pyrimidin-2-amine], the 50% inhibitory concentration (IC50) is 0.07 µM.

For the molecule `CNC1CCN(c2ccc(Nc3ncc(C)c(-c4c[nH]c5ccccc45)n3)c(OC)c2)CC1` [Example 4, 4-(1H-Indol-3-yl)-N-(2-methoxy-4-(4-(methylamino)piperidin-1-yl)phenyl)-5-methylpyrimidin-2-amine], the IC50 came to 0.052 µM.

On to `COc1cc(N2CCC(N)CC2)ccc1Nc1ncc(C)c(-c2c[nH]c3ccccc23)n1` [Example 5, N-(4-(4-Aminopiperidin-1-yl)-2-methoxyphenyl)-4-(1H-indol-3-yl)-5-methylpyrimidin-2-amine], for which the IC50 worked out at 0.03 µM.

In the case of `COc1cc(N2CCC(NC3CC3)CC2)ccc1Nc1ncc(Cl)c(-c2c[nH]c3ccccc23)n1` [Example 6, 5-Chloro-N-(4-(4-(cyclopropylamino)piperidin-1-yl)-2-methoxyphenyl)-4-(1H-indol-3-yl)pyrimidin-2-amine], the IC50 is 0.058 µM.
